Measurements from patent US20250319069A1, “METHODS FOR TREATING DEPRESSIVE STATES” (BioXcel Therapeutics, Inc., priority 2021, published 2025).

What was measured:
[1] = tested on: Yohimbine challenged rats; test: Elevated plus maze test in Yohimbine challenged rats (Example 2); type: in vivo, male Wistar rats; conditions: for In the open arms: Percentage change compared to Yohimbine administered group, Number of entries / In the open arms: Percentage change compared to Yohimbine administered group, Time spent: YOH 2.5 mg/kg; for Number of entries in the open arms (Mean ± SEM) / Time spent in the open arms (Mean ± SEM): rats given YOH 2.5 mg/kg i.p., N=12
Procedure: Treatment with Test Compounds: • As outlined in the table • Vehicle is Saline
After compound administration, the rat was placed on the platform opposite a closed arm. The number of entries and the time spent in each arm were recorded during a 5 min period (deliverables). The animal was considered as entered in arm when it placed its four paws into the arm.
The number of rats processed per day was about 20 in this model. Therefore, the experiment was split in several series.
Analysis of variance (ANOVA) was performed on the result data. Fisher's PLSD was used for
pairwise comparisons and p value <0.05 was considered significant.

rats = test: Elevated plus-maze test in the rat (Example 1); conditions: for significance of effect on number of entries, % of entries and time spent in the open arms as compared with vehicle control: Dexmedetomidine 10 μg/kg i.p. (increase), Fluoxetine 32 mg/kg i.p. (decrease), vs Group 1; for anxiolytic-like / anxiogenic-like activity in the Elevated Plus Maze Test (conclusion in words): rat, Dexmedetomidine 10 μg/kg i.p., alone or co-administered
[2] = Dexmedetomidine 10 μg/kg i.p., Fluvoxamine 3 mg/kg i.p., alone or combined (Group 7), diazepam 1 mg/kg i.p.
[3] = DEX 10 μg/kg or diazepam 1 mg/kg i.p.
[4] = DEX 10 μg/kg i.p., DIAZEPAM 1 mg/kg i.p., or YOH + vehicle, 5 min test
[5] = DEX 10 μg/kg or diazepam 1 mg/kg i.p., listed as DEX
[6] = FLUVO 3 mg/kg, alone or with DEX 10 μg/kg
[7] = FLUVO 10 mg/kg, alone or with DEX 10 μg/kg
[8] = FLUVO 3 mg/kg i.p., alone or with DEX 10 μg/kg i.p.
[9] = FLUVO 10 mg/kg i.p., alone or with DEX 10 μg/kg i.p.
[10] = Yohimbine 2.5 mg/kg i.p. + vehicle (Group 2) vs Group 1, p<0.0001

With `CN1C(=O)CN=C(c2ccccc2)c2cc(Cl)ccc21` [DIAZEPAM, Diazepam] the “anxiolytic-like effect in Yohimbine administered rats (conclusion in words)” value (shortened to “anxiolytic-like effect”) [1, 2] was “reversed Yohimbine-induced anxiety”, the “In the open arms: Percentage change compared to Yohimbine administered group, Number of entries” value (“In the open arms: Percentage change … of entries” below) [1, 3] was “+262%” and the “In the open arms: Percentage change compared to Yohimbine administered group, Time spent” value (from here on “In the open arms: Percentage change … Time spent”) [1, 3] was “+620%”. For the same molecule, the “Number of entries in the open arms (Mean ± SEM)” value (“Number of entries … (Mean ± SEM)” for short) [1, 4] was 6.33 ± 0.28 and the “Time spent in the open arms (Mean ± SEM)” value [1, 4] was 74.98 ± 4.31.

In the case of `Cc1cccc([C@H](C)c2cnc[nH]2)c1C` [Dexmedetomidine, (+) 4-(S)-[1-(2,3-dimethylphenyl)ethyl]-1H-imidazole], the “anxiolytic-like effect” value [1, 2] is reported as “not statistically significant”, the “In the open arms: Percentage change … of entries” value [1, 3] is reported as “+48%” and the “In the open arms: Percentage change … Time spent” value [1, 3] is reported as “+146%”. The “In the open arms: Percentage change … of entries” value [1, 5] was “+48%”, the “In the open arms: Percentage change … Time spent” value [1, 5] was “+146%” and the “Number of entries … (Mean ± SEM)” value [1, 4] was 2.58 ± 0.26. For the same molecule, the “Time spent in the open arms (Mean ± SEM)” value [1, 4] was 25.66 ± 3.84, the “significance of effect on number of entries, % of entries and time spent in the open arms as compared with vehicle control” value (rats) was “not significant” and the “anxiolytic-like / anxiogenic-like activity in the Elevated Plus Maze Test (conclusion in words)” value (rats; Fluoxetine 32 mg/kg i.p.) was “absence of anxiolytic-like activity”.

`CNCCC(Oc1ccc(C(F)(F)F)cc1)c1ccccc1` (stereo not drawn) [Fluoxetine, N-methyl-3-(p-trifluoromethylphenoxy)-3-phenylpropylamine] was tested, and the “significance of effect on number of entries, % of entries and time spent in the open arms as compared with vehicle control” value (rats) was “not significant”, the “change in total distance travelled in the four arms as compared with vehicle control” value (rats; Fluoxetine 32 mg/kg i.p. alone or with Dexmedetomidine 10 μg/kg, vs vehicle control (Group 1)) was −65% and the “change in total number of entries in the four arms as compared with vehicle control” value (rats; Fluoxetine 32 mg/kg i.p., vs vehicle control (Group 1)) was −57%. The “anxiolytic-like / anxiogenic-like activity in the Elevated Plus Maze Test (conclusion in words)” value (rats; Fluoxetine 32 mg/kg i.p.) was “tended to show anxiogenic like effect”.

With `COCCCCC(=NOCCN)c1ccc(C(F)(F)F)cc1` [Fluvoxamine, 5-methoxy-1-[4-(trifluoromethyl)phenyl]-1-pentanone O-(2-aminoethyl) oxime] the “anxiolytic-like effect” value [1, 2] was “not statistically significant”, the “significance of improvement in number of entries in the open arms compared with Yohimbine-administered vehicle group” value ([1]; Fluvoxamine 3 mg/kg i.p. (Group 5)) was “no significant improvement” and the “significance of improvement in number of entries in the open arms compared with Yohimbine-administered vehicle group” value ([1]; Fluvoxamine 10 mg/kg i.p. (Group 6)) was “no significant improvement”. For the same molecule, the “anxiolytic-like effect” value ([1]; Fluvoxamine 10 mg/kg i.p., in terms of the time spent in the open arms) was “significant anxiolytic-like effect”, the “In the open arms: Percentage change … of entries” value [1, 6] was “+52%” and the “In the open arms: Percentage change … Time spent” value [1, 6] was “+105%”. For the same molecule, the “In the open arms: Percentage change … Time spent” value ([1]; FLUVO 3 mg/kg, alone or with DEX 10 μg/kg, listed as FLUVO) was “+105%”, the “In the open arms: Percentage change … of entries” value [1, 7] was “+76%” and the “In the open arms: Percentage change … Time spent” value [1, 7] was “+232%”. For the same molecule, the “In the open arms: Percentage change … Time spent” value ([1]; FLUVO 10 mg/kg, alone or with DEX 10 μg/kg, listed as FLUVO) was “+232%”, the “Number of entries … (Mean ± SEM)” value [1, 8] was 2.67 ± 0.22 and the “Time spent in the open arms (Mean ± SEM)” value [1, 8] was 21.39 ± 2.67. The “Number of entries … (Mean ± SEM)” value [1, 9] was 3.08 ± 0.42 and the “Time spent in the open arms (Mean ± SEM)” value [1, 9] was 34.60 ± 5.24.

With `COC(=O)[C@@H]1[C@H]2C[C@H]3c4[nH]c5ccccc5c4CCN3C[C@@H]2CC[C@@H]1O` [YOH, Yohimbine] the “change in number of entries to the open arms as compared to vehicle (saline) treated group” value [1, 10] was −63%, the “change in time spent in the open arms as compared to vehicle (saline) treated group” value [1, 10] was −81% and the “Number of entries … (Mean ± SEM)” value [1, 4] was 1.75 ± 0.25. The “Time spent in the open arms (Mean ± SEM)” value [1, 4] was 10.42 ± 1.28.
